From BindingDB's records for doi:10.1021/jm00040a015 (Pfizer, 1994)
pIC50: −log10 of the molar value.

Target: cAMP-dependent protein kinase catalytic subunit alpha (Bos taurus, UniProt P00517)
Test: PKA Inhibition Assay
Excerpt: IC50 is the inhibitor concentration, which inhibits 50% of PKA activity that catalyzes the transfer of the terminal phosphate from [gamma-32P] labeled ATP to a synthetic kemptide peptide substrate.

pIC50 (pH 7.4, 30 °C) | pIC50 | SMILES
< 3.10 | – | Oc1cc2nc(O)c3cc(O)c(O)cc3c2cc1O [2,3,8,9-tetrahydroxy-5,6-dihydrophenanthridin-6-one]
< 2.70 | – | CCn1c(=O)c2cc(O)c(O)cc2c2cc(O)c(O)cc21 [5-ethyl-2,3,8,9-tetrahydroxy-5,6-dihydrophenanthridin-6-one]
– | < 3.22 | O=S(=O)(c1ccccc1)n1c2cc(O)c(O)cc2c2cc(O)c(O)cc21 [9-(benzenesulfonyl)-9H-carbazole-2,3,6,7-tetrol]
